# Laboratory results: patent US4312874A, “Antibacterial compounds, processes for their preparation and compositions containing them” (Beecham Group Limited, priority 1979, dated 1982)
# Read-outs that look alike come from different tables or passages of the source.
# Experiments:
# [1] = tested on: Erysipelothrix rhusiopathiae NCTC 8163; test: MIC by agar dilution, veterinary bacteria; details: NCTC8163, 24 h
# Sarcina lutea 8340 = test: MIC by serial dilution in nutrient agar with 5% chocolated horse blood; assay type: cell-based; details: Micrococcus luteus
# [2] = tested on: Corynebacterium xerosis 9755; test: as above; assay type: cell-based; details: Table 1
# [3] = tested on: Pasteurella multocida 1633; test: as above; assay type: cell-based; details: Table 1
# Past. haemolytica PA5 = test: MIC by agar dilution, veterinary bacteria; details: Mannheimia haemolytica, PA5, 24 h
# [4] = tested on: M. suipneumoniae ATCC 25095; test: in vitro MIC by serial dilution in Friis modified agarose medium; assay type: cell-based; details: Mesomycoplasma hyopneumoniae, ATCC25095; Table 3
# [5] = tested on: M. suipneumoniae PW/C/210; test: as above; assay type: cell-based; details: Mesomycoplasma hyopneumoniae; Table 3
# Staph. aureus Russell = test: MIC by serial dilution in nutrient agar with 5% chocolated horse blood; assay type: cell-based; details: Staphylococcus aureus; Table 1
# E. coli E1 = test: MIC by agar dilution, veterinary bacteria; details: Escherichia coli, E1, 24 h
# M. suipneumoniae JF 435 = test: in vitro MIC by serial dilution in Friis modified agarose medium; assay type: cell-based; details: Mesomycoplasma hyopneumoniae, JF435; Table 3
# M. pneumoniae ATCC 15492 = test: as above; assay type: cell-based; details: Mycoplasmoides pneumoniae, ATCC15492; Table 3
# [6] = tested on: M. bovigenitalium ATCC 14173; test: as above; assay type: cell-based
# K. aerogenes A = test: MIC by serial dilution in nutrient agar with 5% chocolated horse blood; assay type: cell-based; details: Klebsiella aerogenes
# M. siupneumoniae HK(2) = test: in vitro MIC by serial dilution in Friis modified agarose medium; assay type: cell-based; details: Table 3
# Strep. pneumoniae CN33 = test: MIC by serial dilution in nutrient agar with 5% chocolated horse blood; assay type: cell-based; details: Streptococcus pneumoniae, Table 1
# M.suipneumoniae NB12 = test: in vitro MIC by serial dilution in Friis modified agarose medium; assay type: cell-based; details: Mesomycoplasma hyopneumoniae, Table 3
# Strep. faecalis = test: MIC by serial dilution in nutrient agar with 5% chocolated horse blood; assay type: cell-based; details: Enterococcus faecalis
# Staph. aureus Oxford = test: as above; assay type: cell-based; details: Staphylococcus aureus; Table 1
# Past. multocida PA1 = test: MIC by agar dilution, veterinary bacteria; details: Pasteurella multocida, PA1, 24 h
# M. suipneumoniae MS 16 = test: in vitro MIC by serial dilution in Friis modified agarose medium; assay type: cell-based; details: Mesomycoplasma hyopneumoniae, MS16; Table 3
# Bord. bronchiseptica B08 = test: MIC by agar dilution, veterinary bacteria; details: Bordetella bronchiseptica, B08, 24 h
# [7] = Serum binding by ultrafiltration; assay type: in vitro ADME; details: pig, 8 mcg/ml, read-out: % Bound to Pig Serum (converted)
# Procedure: Serum binding was assessed by ultrafiltration of procine serum containing compounds at 8 mcg/ml, and through an Amicon CF50A ultrafiltration cone. Separation of ultrafiltrate was achieved by centrifugation. Unbound concentrations of compound were measured in the ultrafiltrate by microbiological assay (B. subtilis ATCC 6633) against standards prepared in saline.
# Bacillus subtilis 6633 = test: MIC by serial dilution in nutrient agar with 5% chocolated horse blood; assay type: cell-based; details: Table 1
# Strep. uberis SPU1 = test: MIC by agar dilution, veterinary bacteria; details: Streptococcus uberis, SPU1, 24 h
# Past. multocida PA2 = test: MIC by agar dilution, veterinary bacteria; details: Pasteurella multocida, PA2, 24 h
# M. dispar NCTC 10125 = test: in vitro MIC by serial dilution in Friis modified agarose medium; assay type: cell-based
# [8] = tested on: Neisseria catarrhalis 1502; test: MIC by serial dilution in nutrient agar with 5% chocolated horse blood; assay type: cell-based
# P. mirabilis 889 = test: as above; assay type: cell-based; details: Proteus mirabilis
# [9] = tested on: Staph. aureus 152 (pen sens); test: MIC by agar dilution, veterinary bacteria; details: Staphylococcus aureus, 24 h
# Staph. aureus W2827 = test: MIC by serial dilution in nutrient agar with 5% chocolated horse blood; assay type: cell-based; details: Staphylococcus aureus, Table 1
# Strep. dysgalactiae SPD1 = test: MIC by agar dilution, veterinary bacteria; details: Streptococcus dysgalactiae, SPD1, 24 h
# [10] = tested on: Strep. suis (group D) SPS11; test: MIC by agar dilution, veterinary bacteria; details: Streptococcus suis, 24 h
# M. hyorhinis ATCC 23234 = test: in vitro MIC by serial dilution in Friis modified agarose medium; assay type: cell-based; details: Mesomycoplasma hyorhinis, ATCC23234; Table 3
# [11] = tested on: M. suipneumoniae J2206/183b; test: as above; assay type: cell-based; details: Mesomycoplasma hyopneumoniae, Table 3
# E. coli NCTC 10418 = test: MIC by serial dilution in nutrient agar with 5% chocolated horse blood; assay type: cell-based; details: Escherichia coli, NCTC10418
# [12] = tested on: Haemophilus influenzae Q1; test: as above; assay type: cell-based; details: Table 1
# M. gallisepticum S6 = test: in vitro MIC by serial dilution in Friis modified agarose medium; assay type: cell-based; details: Mycoplasmoides gallisepticum, Table 3
# Strep. pyogenes B 2788 = test: MIC by serial dilution in nutrient agar with 5% chocolated horse blood; assay type: cell-based; details: Streptococcus pyogenes, B2788; Table 1
# [13] = tested on: M. suipneumoniae NCTC 10110; test: in vitro MIC by serial dilution in Friis modified agarose medium; assay type: cell-based; details: Mesomycoplasma hyopneumoniae, NCTC10110; Table 3
# [14] = tested on: Haemophilus influenzae Wy21; test: MIC by serial dilution in nutrient agar with 5% chocolated horse blood; assay type: cell-based
# Strep. pyogenes C 2761 = test: as above; assay type: cell-based; details: Streptococcus pyogenes, C2761; Table 1
# M. suipneumoniae LABER = test: in vitro MIC by serial dilution in Friis modified agarose medium; assay type: cell-based; details: Mesomycoplasma hyopneumoniae; Table 3
compound,measurement,setting,value
"CCCCC(=O)C=C(C)CC1OCC(CC2OC2C(C)C(C)O)C(O)C1O [Example 3, 1-[3R,4R-Dihydroxy-5S-(2S,3S-epoxy-5S-hydroxy-4S-methylhexyl)tetrahydropyran-2S-yl]-2-methyloct-2E-en-4-one]",MIC,[1],> 80 µg/mL
same,MIC,"Sarcina lutea 8340; Table 1, read-out: MIC",> 100 µg/mL
same,MIC,[2],100 µg/mL
same,MIC,[3],0.5 µg/mL
same,MIC,Past. haemolytica PA5,20 µg/mL
same,MIC,[4],1 µg/mL
same,MIC,[5],0.5 µg/mL
same,MIC,Staph. aureus Russell,1 µg/mL
same,MIC,E. coli E1,> 80 µg/mL
same,MIC,M. suipneumoniae JF 435,1 µg/mL
same,MIC,M. pneumoniae ATCC 15492,10 µg/mL
same,MIC,"[6]; Table 3, read-out: MIC",0.05 µg/mL
same,MIC,"K. aerogenes A; Table 1, read-out: MIC",> 100 µg/mL
same,MIC,M. siupneumoniae HK(2),1 µg/mL
same,MIC,Strep. pneumoniae CN33,5 µg/mL
same,MIC,M.suipneumoniae NB12,1 µg/mL
same,MIC,"Strep. faecalis; Table 1, read-out: MIC",> 100 µg/mL
same,MIC,Staph. aureus Oxford,1 µg/mL
same,MIC,Past. multocida PA1,2.5 µg/mL
same,MIC,M. suipneumoniae MS 16,0.5 µg/mL
same,MIC,Bord. bronchiseptica B08,> 80 µg/mL
same,fraction unbound,[7],0.469
same,MIC,Bacillus subtilis 6633,0.5 µg/mL
same,MIC,Strep. uberis SPU1,2.5 µg/mL
same,MIC,Past. multocida PA2,1.25 µg/mL
same,MIC,"M. dispar NCTC 10125; Table 3, read-out: MIC",0.25 µg/mL
same,MIC,"[8]; Table 1, read-out: MIC",0.5 µg/mL
same,MIC,"P. mirabilis 889; Table 1, read-out: MIC",100 µg/mL
same,MIC,[9],2.5 µg/mL
same,MIC,Staph. aureus W2827,2.5 µg/mL
same,MIC,Strep. dysgalactiae SPD1,10 µg/mL
same,MIC,[10],> 80 µg/mL
same,MIC,M. hyorhinis ATCC 23234,0.5 µg/mL
same,MIC,[11],1 µg/mL
same,MIC,"E. coli NCTC 10418; Table 1, read-out: MIC",> 100 µg/mL
same,MIC,[12],0.2 µg/mL
same,MIC,M. gallisepticum S6,> 10 µg/mL
same,MIC,Strep. pyogenes B 2788,2.5 µg/mL
same,MIC,[13],1 µg/mL
same,MIC,"[14]; Table 1, read-out: MIC",0.2 µg/mL
same,MIC,Strep. pyogenes C 2761,2.5 µg/mL
same,MIC,M. suipneumoniae LABER,0.5 µg/mL
"CCC(=O)C=C(C)CC1OCC(CC2OC2C(C)C(C)O)C(O)C1O [Example 2, 1-[3R,4R-Dihydroxy-5S-(2S,3S-epoxy-5-S-hydroxy-4S-methylhexyl)tetrahydropyran-2S-yl]-2-methylhex-2E-en-4-one]",MIC,[1],> 40 µg/mL
same,MIC,Sarcina lutea 8340,> 50 µg/mL
same,MIC,[2],25 µg/mL
same,MIC,[3],2.5 µg/mL
same,MIC,Past. haemolytica PA5,5 µg/mL
same,MIC,[4],2.5 µg/mL
same,MIC,[5],2.5 µg/mL
same,MIC,Staph. aureus Russell,2.5 µg/mL
same,MIC,E. coli E1,> 40 µg/mL
same,MIC,M. suipneumoniae JF 435,5 µg/mL
same,MIC,M. pneumoniae ATCC 15492,> 10 µg/mL
same,MIC,[6],0.1 µg/mL
same,MIC,K. aerogenes A,> 50 µg/mL
same,MIC,M. siupneumoniae HK(2),2.5 µg/mL
same,MIC,Strep. pneumoniae CN33,12.5 µg/mL
same,MIC,M.suipneumoniae NB12,2.5 µg/mL
same,MIC,Strep. faecalis,> 50 µg/mL
same,MIC,Staph. aureus Oxford,1.2 µg/mL
same,MIC,Past. multocida PA1,0.625 µg/mL
same,MIC,M. suipneumoniae MS 16,2.5 µg/mL
same,MIC,Bord. bronchiseptica B08,> 40 µg/mL
same,fraction unbound,[7],0.739
same,MIC,Bacillus subtilis 6633,2.5 µg/mL
same,MIC,Strep. uberis SPU1,5 µg/mL
same,MIC,Past. multocida PA2,0.312 µg/mL
same,MIC,M. dispar NCTC 10125,0.5 µg/mL
same,MIC,[8],0.5 µg/mL
same,MIC,P. mirabilis 889,> 50 µg/mL
same,MIC,[9],0.312 µg/mL
same,MIC,Staph. aureus W2827,2.5 µg/mL
same,MIC,Strep. dysgalactiae SPD1,20 µg/mL
same,MIC,[10],> 40 µg/mL
same,MIC,M. hyorhinis ATCC 23234,2.5 µg/mL
same,MIC,[11],5 µg/mL
same,MIC,E. coli NCTC 10418,> 50 µg/mL
same,MIC,[12],0.2 µg/mL
same,MIC,M. gallisepticum S6,> 10 µg/mL
same,MIC,Strep. pyogenes B 2788,25 µg/mL
same,MIC,[13],5 µg/mL
same,MIC,[14],0.5 µg/mL
same,MIC,Strep. pyogenes C 2761,25 µg/mL
same,MIC,M. suipneumoniae LABER,2.5 µg/mL
